These results are taken from patent US20140065615A1, “The KRAS Variant and Tumor Biology” (YALE UNIVERSITY, priority 2011, published 2014).

What all share (format): cell-based
Assay [1] has as its system BG1 (KRAS variant/BRCA wild-type cell line). The assay is described as follows: CellTiter-Blue chemosensitivity / cell viability assay, BG1. The conditions noted are these: KRAS-variant line BG1 vs non-variant CAOV3. The method, then: (§1) The activity of drugs alone or in combination was determined by a high-through-put CellTiter-Blue cell viability assay. For these assays, 1.2×10^3 cells were plated in each well of 384-well plates using a Precision XS liquid handling station (Bio-Tek Instruments Inc., Winooski, Vt., USA) and allowed to attach overnight with incubation at 37° C., 5% CO2. Using the liquid handling station, all drugs were serially diluted 2:3 or 1:2 in media, and 5 μl of these dilutions were added to appropriate wells at indicated times. Four replicate wells were used for each drug concentration and an additional four control wells received a diluent control without drug. At the end of the incubation period with drugs, 5 μl CellTiter-Blue reagent (Promega Corp., Madison, Wis., USA) was added to each well. Cell viability was assessed by the ability of the remaining viable cells to bioreduce resazurin to resorufin. The fluorescence of resorufin (579 nm Ex/584 nm Em) was measured using a Synergy 4 microplate reader (Bio-Tek Instruments Inc.). […] IC50s were determined using a sigmoidal equilibrium model regression using XLfit version 5.2 (ID Business Solutions Ltd). The IC50 was defined as the concentration Of drug required for a 50% reduction in growth/viability. All experiments were carried out a minimum of three times.
For example, a cell line that is KRAS variant positive/BRCA wild-type (BG1), a non-variant/BRCA wild-type cell line (CAOV3) and a cell line KRAS-variant positive/BRCA1 mutant (IGR-OV1) were tested.

For assay [2], the system named is IGR-OV1 (KRAS-variant/BRCA1 mutant cell line). The assay is described as follows: CellTiter-Blue chemosensitivity / cell viability assay, IGR-OV1. The conditions noted are these: KRAS variant and deleterious BRCA1 mutation line vs CAOV3. The method, then:
as §1, with “three times. […]” for “three times.”

Assay [3] deals with wild-type 3′UTR reporter (KRAS). The assay is described as follows: Luciferase reporter expression after irinotecan exposure, wild-type 3′UTR reporter. From the text:
(§2) The disclosure provides a method of predicting the response of a cancer cell to the combination of a chemotherapy and monoclonal antibody therapy, including detecting a mutation in let-7 complementary site LCS6 of human KRAS in a patient sample, wherein the mutation is a SNP comprising a uracil (U) or thymine (T) to guanine (G) transition at position 4 of LCS6, and wherein the presence of the mutation indicates a resistance to the combination. In certain embodiments of this method, the cancer cell is a colorectal cancer (CRC) cell. The cancer cell may be evaluated in vitro or ex vivo. […] The chemotherapy may be a cytotoxic agent. A non-limiting example of the cytotoxic agent is irinotecan.

Assay [4] relates to KRAS-variant 3′UTR reporter. The assay is described as follows: Luciferase reporter expression after irinotecan exposure, KRAS-variant 3′UTR reporter.
Description: as §2

Structures are written as SMILES.

As to `COc1cccc2c1C(=O)c1c(O)c3c(c(O)c1C2=O)C[C@@](O)(C(=O)CO)C[C@@H]3O[C@H]1C[C@H](N)[C@H](O)[C@H](C)O1` [Doxorubicin, doxorubicin], in assay [1], the “resistance of BG1 compared with CAOV3” value was “significantly resistant”.

As to `N.N.O=C([O-])C1(C(=O)[O-])CCC1.[Pt+2]` [carboplatin], the “resistance of IGROV1 compared with CAOV3” value in assay [2] was “not resistant”. In assay [1], the “resistance of BG1 compared with CAOV3” value was “statistically significantly resistant”.

`CC[C@@]1(O)C(=O)OCc2c1cc1n(c2=O)Cc2cc3c(CN(C)C)c(O)ccc3nc2-1` [Topotecan, topotecan]: in assay [1], the “resistance of BG1 compared with CAOV3” value is recorded as “significantly resistant”.

With `CCc1c2c(nc3ccc(OC(=O)N4CCC(N5CCCCC5)CC4)cc13)-c1cc3c(c(=O)n1C2)COC(=O)[C@]3(O)CC` [irinotecan], the entries for the “reporter expression following irinotecan exposure” value in assay [3] and in assay [4] were “no change” and “statistically-significant increase”, respectively.

Consider `Nc1ccn([C@@H]2O[C@H](CO)[C@@H](O)C2(F)F)c(=O)n1` [Gemcitabine, gemcitabine], for which the “resistance of BG1 compared with CAOV3” value in assay [1] is reported as “significantly resistant”.
